Legend:
FGFR1 = target: T1, FGFR1 (Homo sapiens, UniProt P11362); experiment: Kinase binding assay (Kd), kinase-tagged T7 phage, affinity beads, qPCR; settings: in vitro binding assay, 11-point 3-fold dilution series
T1 construct: made in house; host or cells: E. coli (BL21-derived) infected with T7 phage
Procedure: (§1) Kinase-tagged T7 phage strains were prepared in an E. coli host derived from the BL21 strain. E. coli were grown to log-phase and infected with T7 phage and incubated with shaking at 32° C. until lysis. The lysates were centrifuged and filtered to remove cell debris. Streptavidin-coated magnetic beads were treated with biotinylated small molecule ligands for 30 minutes at room temperature to generate affinity resins for kinase assays. The liganded beads were blocked with excess biotin and washed with blocking buffer SeaBlock (Pierce), 1% BSA, 0.05% Tween 20, 1 mM DTT to remove unbound ligand and to reduce non-specific binding. Binding reactions were assembled by combining kinases, liganded affinity beads, and test compounds in 1× binding buffer (20% SeaBlock, 0.17×PBS, 0.05% Tween 20, 6 mM DTT).
(§2) Test compounds were prepared as 111× stocks in 100% DMSO. Kds were determined using an 11-point 3-fold compound dilution series with three DMSO control points. All compounds for Kd measurements are distributed by acoustic transfer (non-contact dispensing) in 100% DMSO. The compounds were then diluted directly into the assays such that the final concentration of DMSO was 0.9%. All reactions performed in polypropylene 384-well plate. Each was a final volume of 0.02 ml. The assay plates were incubated at room temperature with shaking for 1 hour and the affinity beads were washed with wash buffer (1×PBS, 0.05% Tween 20). The beads were then re-suspended in elution buffer (1×PBS, 0.05% Tween 20, 0.5 μM non-biotinylated affinity ligand) and incubated at room temperature with shaking for 30 minutes. The kinase concentration in the eluates was measured by qPCR.
(§3) Binding constants were calculated with a standard dose-response curve using the Hill equation: […]
(§4) The Hill Slope was set to −1. Curves were fitted using a non-linear least square fit with the Levenberg-Marquardt algorithm.

FGFR3 = target: T2, FGFR3 (Homo sapiens, UniProt P22607); experiment: as above; settings: in vitro binding assay, 11-point 3-fold dilution series
T2 construct: made in house; host or cells: E. coli (BL21-derived) infected with T7 phage
Procedure: as §1, §2, §3, §4

Ba/F3 BCR-FGFR1 = target: T3, Ba/F3 BCR-FGFR1 (Homo sapiens, UniProt P11362); experiment: Ba/F3 cell viability assay (CellTiter-Glo 2.0); assay type: cell-based; settings: Ba/F3 cell data, BCR-FGFR1 fusion, 48 hours
T3 construct: BCR (fusion partner); host or cells: Ba/F3; the other entry of the earlier key: BCR (P11274, Breakpoint cluster region protein)

Ba/F3 BCR-FGFR2 = target: T4, Ba/F3 BCR-FGFR2 (Homo sapiens, UniProt P21802); experiment: Ba/F3 cell viability assay (CellTiter-Glo 2.0); assay type: cell-based; settings: Ba/F3 cell data, BCR-FGFR2 fusion, 48 hours
T4 construct: BCR (fusion partner); host or cells: Ba/F3; the other entry of the earlier key: BCR (P11274, Breakpoint cluster region protein)

Ba/F3 FGFR3-BAIAP2L1 = target: T5, Ba/F3 FGFR3-BAIAP2L1 (Homo sapiens, UniProt P22607); experiment: Ba/F3 cell viability assay (CellTiter-Glo 2.0); assay type: cell-based; settings: Ba/F3 cell data, FGFR3-BAIAP2L1 fusion, 48 hours
T5 construct: BAIAP2L1 (fusion partner, Q9UHR4 if human); host or cells: Ba/F3; the other entry of the earlier key: BAIAP2L1 (Q9UHR4, BAR/IMD domain-containing adapter protein 2-like 1)

Ba/F3 ETV5-FGFR4 = target: T6, Ba/F3 ETV5-FGFR4 (Homo sapiens, UniProt P22455); experiment: Ba/F3 cell viability assay (CellTiter-Glo 2.0); assay type: cell-based; settings: Ba/F3 cell data, ETV5-FGFR4 fusion, 48 hours
T6 construct: host or cells: Ba/F3; the other entry of the earlier key: ETV5 (P41161, ETS translocation variant 5)
Source text: Experimental Purpose: Recombinant kinase fusions are transduced into parental Ba/F3, which becomes dependent upon this constitutive kinase activity for IL3-independent survival. Inhibition of kinase activity leads to cell death, which is monitored using CellTiter-Glo® 2.0 (Promega) which measures intracellular ATP concentration that in turn serves as a marker for viability. BCR-FGFR1 Ba/F3, BCR-FGFR2 and FGFR3-BAIAP2L1 Ba/F3 were obtained from Advanced Cellular Dynamics (Seattle, WA). ETV6-FGFR4 was obtained from Kyinno (Waltham, MA).
Cell Viability Assay Procedure: Cell Titer-Glo® 2.0 Luminescent cell viability assay reagent was purchased from Promega (Madison, WI). Ba/F3 cell lines were cultured in RPMI1640 media supplemented with 10% fetal bovine serum. Cultures were maintained at 37° C. in a humidified atmosphere of 5% CO2 and 95% air.
Cells were plated in 96-well clear bottom/white plates (Corning #3903) at 10,000 cells/well in 100 μl of media, incubated overnight. The next day, test compound DMSO stock solutions were made at 10 mM and 2 μM final concentration. Compounds were then added to cells in a 9-dose, 10-fold dilution series starting at 30 μM with an HP 300e Digital Dispenser (each dose was applied in triplicate). DMSO was backfilled to each well up to 301 nL total volume of test compound+DMSO, and a total of 301 nL DMSO was added to a control/no test compound well in triplicate. The cells in cell culture plates were incubated with the compounds at 37° C. and 5% CO2 for 48 hours. Then 50 μl of Cell Titer Glo 2.0 reagent was added to each well of the cell culture plates. The contents were covered from light and mixed on an orbital shaker at room temperature for 10 min. Luminescence was recorded by a Synergy H1 Microplate Reader (Biotek, Winooski, VT). Cells were assessed as a percentage of DMSO only treated control cells. Curves were plotted and IC50 values were calculated using the GraphPad Prism 8 program based on a sigmoidal dose-response equation (4 parameter).

FGFR2 = target: T7, FGFR2 (Homo sapiens, UniProt P21802); experiment: Kinase binding assay (Kd), kinase-tagged T7 phage, affinity beads, qPCR; settings: in vitro binding assay, 11-point 3-fold dilution series
T7 construct: made in house; host or cells: E. coli (BL21-derived) infected with T7 phage
Procedure: as §1, §2, §3, §4

FGFR3 (V555M) = target: T8, FGFR3 (V555M) (Homo sapiens, UniProt P22607, V555M); experiment: as above; settings: in vitro binding assay, 11-point 3-fold dilution series
T8 construct: made in house; host or cells: E. coli (BL21-derived) infected with T7 phage
Procedure: as §1, §2, §3, §4

FGFR4 = target: T9, FGFR4 (Homo sapiens, UniProt P22455); experiment: as above; settings: in vitro binding assay, 11-point 3-fold dilution series
T9 construct: made in house; host or cells: E. coli (BL21-derived) infected with T7 phage
Procedure: as §1, §2, §3, §4

T3 sequence (P11362 478-767 limits assumed): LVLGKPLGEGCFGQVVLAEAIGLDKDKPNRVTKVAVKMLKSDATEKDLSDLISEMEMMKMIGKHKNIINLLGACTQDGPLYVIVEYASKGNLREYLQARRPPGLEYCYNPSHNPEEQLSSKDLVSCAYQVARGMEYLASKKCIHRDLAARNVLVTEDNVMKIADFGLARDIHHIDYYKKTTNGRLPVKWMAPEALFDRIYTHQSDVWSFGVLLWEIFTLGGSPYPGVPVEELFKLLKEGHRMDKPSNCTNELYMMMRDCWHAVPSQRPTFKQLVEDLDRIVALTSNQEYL
T4 sequence (P21802 481-770 limits assumed): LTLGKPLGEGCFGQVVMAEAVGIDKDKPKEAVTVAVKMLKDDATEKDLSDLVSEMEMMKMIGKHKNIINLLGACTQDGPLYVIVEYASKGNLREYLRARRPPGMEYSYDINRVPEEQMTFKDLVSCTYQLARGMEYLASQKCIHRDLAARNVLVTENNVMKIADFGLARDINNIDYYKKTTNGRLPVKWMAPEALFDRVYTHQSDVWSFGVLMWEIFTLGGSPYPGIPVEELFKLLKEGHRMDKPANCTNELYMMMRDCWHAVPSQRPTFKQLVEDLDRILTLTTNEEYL
T9 sequence (P22455 22-802): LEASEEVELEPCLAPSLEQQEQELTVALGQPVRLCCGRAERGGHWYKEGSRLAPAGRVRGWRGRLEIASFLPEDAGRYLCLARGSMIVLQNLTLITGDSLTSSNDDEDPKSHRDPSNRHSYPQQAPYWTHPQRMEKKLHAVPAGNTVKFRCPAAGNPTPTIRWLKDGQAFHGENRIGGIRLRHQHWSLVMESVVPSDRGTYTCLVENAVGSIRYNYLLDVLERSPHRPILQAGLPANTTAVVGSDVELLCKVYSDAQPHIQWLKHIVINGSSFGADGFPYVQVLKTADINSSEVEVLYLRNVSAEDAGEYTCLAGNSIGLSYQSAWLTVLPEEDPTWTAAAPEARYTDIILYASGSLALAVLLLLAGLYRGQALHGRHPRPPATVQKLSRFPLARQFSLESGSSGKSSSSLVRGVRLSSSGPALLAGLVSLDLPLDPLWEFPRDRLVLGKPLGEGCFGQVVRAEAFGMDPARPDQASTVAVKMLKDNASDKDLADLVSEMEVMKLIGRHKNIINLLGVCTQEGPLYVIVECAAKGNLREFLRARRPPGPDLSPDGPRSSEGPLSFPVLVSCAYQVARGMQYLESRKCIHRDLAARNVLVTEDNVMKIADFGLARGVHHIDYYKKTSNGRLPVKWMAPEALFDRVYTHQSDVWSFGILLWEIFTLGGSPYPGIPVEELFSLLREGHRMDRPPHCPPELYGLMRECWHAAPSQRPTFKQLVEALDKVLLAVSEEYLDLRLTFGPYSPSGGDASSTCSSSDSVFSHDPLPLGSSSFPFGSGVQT
T2 sequence (P22607 23-806): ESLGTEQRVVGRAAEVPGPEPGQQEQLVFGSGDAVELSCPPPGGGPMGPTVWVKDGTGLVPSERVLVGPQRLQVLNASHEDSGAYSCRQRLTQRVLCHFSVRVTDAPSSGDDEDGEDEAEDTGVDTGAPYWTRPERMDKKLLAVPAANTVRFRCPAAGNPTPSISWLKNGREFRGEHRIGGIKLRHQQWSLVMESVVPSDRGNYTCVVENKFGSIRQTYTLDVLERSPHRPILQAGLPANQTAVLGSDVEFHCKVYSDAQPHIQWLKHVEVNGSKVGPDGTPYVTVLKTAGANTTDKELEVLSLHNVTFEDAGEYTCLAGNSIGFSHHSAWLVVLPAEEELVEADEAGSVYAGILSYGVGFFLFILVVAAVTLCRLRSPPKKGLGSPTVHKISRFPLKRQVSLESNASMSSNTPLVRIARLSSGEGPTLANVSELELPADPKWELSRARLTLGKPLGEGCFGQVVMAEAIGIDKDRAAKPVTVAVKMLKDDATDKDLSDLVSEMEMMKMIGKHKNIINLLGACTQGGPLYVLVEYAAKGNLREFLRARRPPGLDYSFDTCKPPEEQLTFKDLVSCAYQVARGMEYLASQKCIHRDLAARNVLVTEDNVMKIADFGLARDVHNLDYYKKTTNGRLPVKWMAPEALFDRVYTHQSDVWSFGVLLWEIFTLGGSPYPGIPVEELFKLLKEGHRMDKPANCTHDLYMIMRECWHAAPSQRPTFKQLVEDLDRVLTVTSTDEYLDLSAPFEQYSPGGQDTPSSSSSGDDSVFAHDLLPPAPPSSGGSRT
T8 sequence (P22607 23-806 V555M): as the sequence (P22607 23-806) above, with V533M counted along it
T7 sequence (P21802 22-821): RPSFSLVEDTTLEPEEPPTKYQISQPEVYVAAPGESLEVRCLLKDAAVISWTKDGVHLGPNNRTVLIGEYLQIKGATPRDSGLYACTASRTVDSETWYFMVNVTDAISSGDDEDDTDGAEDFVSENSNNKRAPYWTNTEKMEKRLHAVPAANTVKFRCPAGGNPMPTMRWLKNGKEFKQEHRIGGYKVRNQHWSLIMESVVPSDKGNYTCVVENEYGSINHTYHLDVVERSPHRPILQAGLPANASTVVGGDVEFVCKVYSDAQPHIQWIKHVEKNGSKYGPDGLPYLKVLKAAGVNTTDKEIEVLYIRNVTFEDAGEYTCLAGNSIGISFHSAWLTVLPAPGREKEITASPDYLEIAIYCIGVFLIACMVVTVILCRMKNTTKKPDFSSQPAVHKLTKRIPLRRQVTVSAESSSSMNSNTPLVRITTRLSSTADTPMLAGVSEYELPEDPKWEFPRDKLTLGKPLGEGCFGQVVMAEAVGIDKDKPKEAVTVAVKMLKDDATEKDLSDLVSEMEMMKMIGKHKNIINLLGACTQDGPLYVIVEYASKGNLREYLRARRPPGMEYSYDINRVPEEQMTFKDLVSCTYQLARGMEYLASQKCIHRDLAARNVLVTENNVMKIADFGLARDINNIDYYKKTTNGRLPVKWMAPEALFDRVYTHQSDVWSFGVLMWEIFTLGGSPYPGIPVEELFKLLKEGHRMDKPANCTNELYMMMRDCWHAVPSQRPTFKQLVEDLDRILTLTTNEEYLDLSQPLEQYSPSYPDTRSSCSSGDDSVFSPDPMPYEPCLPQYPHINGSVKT
T5 sequence (P22607 397-758 limits assumed): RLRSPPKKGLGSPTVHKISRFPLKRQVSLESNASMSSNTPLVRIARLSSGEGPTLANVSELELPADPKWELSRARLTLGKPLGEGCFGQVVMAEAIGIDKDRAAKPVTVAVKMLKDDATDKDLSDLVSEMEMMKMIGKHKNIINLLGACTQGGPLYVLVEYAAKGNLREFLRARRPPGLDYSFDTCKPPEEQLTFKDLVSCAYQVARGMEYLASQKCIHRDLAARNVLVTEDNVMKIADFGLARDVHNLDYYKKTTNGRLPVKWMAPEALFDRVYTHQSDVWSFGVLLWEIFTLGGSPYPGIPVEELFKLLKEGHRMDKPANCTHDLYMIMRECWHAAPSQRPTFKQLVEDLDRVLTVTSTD
T1 sequence (P11362 22-822): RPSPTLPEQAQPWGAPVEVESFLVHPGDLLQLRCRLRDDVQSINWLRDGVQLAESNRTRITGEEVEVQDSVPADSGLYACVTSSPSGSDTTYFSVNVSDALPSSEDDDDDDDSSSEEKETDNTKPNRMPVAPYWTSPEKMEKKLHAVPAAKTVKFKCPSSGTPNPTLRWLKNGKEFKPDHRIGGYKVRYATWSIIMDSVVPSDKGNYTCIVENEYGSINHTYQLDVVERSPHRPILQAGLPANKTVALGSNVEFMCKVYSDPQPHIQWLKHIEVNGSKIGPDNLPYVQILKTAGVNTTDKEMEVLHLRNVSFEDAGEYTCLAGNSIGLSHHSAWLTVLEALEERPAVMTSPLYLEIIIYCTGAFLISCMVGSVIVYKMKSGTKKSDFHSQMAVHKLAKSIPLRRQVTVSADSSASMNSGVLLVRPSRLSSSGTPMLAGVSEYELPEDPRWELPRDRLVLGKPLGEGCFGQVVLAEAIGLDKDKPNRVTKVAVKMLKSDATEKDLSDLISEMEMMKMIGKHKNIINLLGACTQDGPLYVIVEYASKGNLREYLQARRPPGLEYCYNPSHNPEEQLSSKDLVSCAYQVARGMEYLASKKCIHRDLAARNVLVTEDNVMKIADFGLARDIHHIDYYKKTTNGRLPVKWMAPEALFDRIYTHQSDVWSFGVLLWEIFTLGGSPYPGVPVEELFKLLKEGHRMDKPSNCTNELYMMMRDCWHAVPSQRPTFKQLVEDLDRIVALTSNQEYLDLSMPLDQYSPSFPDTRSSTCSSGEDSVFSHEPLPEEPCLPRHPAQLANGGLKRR
T6 sequence (P22455 467-755 limits assumed): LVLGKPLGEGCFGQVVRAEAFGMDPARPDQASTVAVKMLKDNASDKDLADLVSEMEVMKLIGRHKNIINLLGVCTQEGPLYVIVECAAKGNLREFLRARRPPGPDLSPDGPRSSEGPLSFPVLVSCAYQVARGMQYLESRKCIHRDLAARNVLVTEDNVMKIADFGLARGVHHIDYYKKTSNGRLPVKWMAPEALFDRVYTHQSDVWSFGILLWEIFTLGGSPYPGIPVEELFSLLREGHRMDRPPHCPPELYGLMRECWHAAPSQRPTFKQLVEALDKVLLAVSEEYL

Row | SMILES | Kd (FGFR1) [nM] | Kd (FGFR3) [nM] | Kd (Ba/F3 BCR-FGFR1) [nM] | Kd (Ba/F3 BCR-FGFR2) [nM] | Kd (Ba/F3 FGFR3-BAIAP2L1) [nM] | Kd (Ba/F3 ETV5-FGFR4) [nM] | Kd (FGFR2) [nM] | Kd (FGFR3 (V555M)) [nM] | Kd (FGFR4) [nM]
1 | C=CC(=O)N1CCC2(CC1)CC(n1ncc(-c3cc(OC(CO)c4ccccn4)c4c(Cl)cnn4c3)c1C)C2 (single isomer, unassigned) [Example 6] | 100 to 250 | 0.1 to 100 | 250 to 1000 | 250 to 1000 | 0.1 to 100 | 250 to 1000 |  |  | 
2 | C=CC(=O)N1CCC2(CC1)CC(n1nnc(-c3cc(O[C@H](C)c4ccccn4)c4c(Cl)cnn4c3)c1C)C2 [Example 4, (R)-1-(2-(4-(3-chloro-4-(1-(pyridin-2-yl)ethoxy)-pyrazolo[1,5-a]pyridin-6-yl)-5-methyl-1H-1,2,3-triazol-1-yl)-7-azaspiro[3.5]nonan-7-yl)prop-2-en-1-one] | 0.1 to 100 | 0.1 to 100 | 100 to 250 | 100 to 250 | 0.1 to 100 | 250 to 1000 |  |  | 
3 | C=CC(=O)N1CCC2(CC1)CC(n1ncc(-c3cc(O[C@@H](CO)c4ccccn4)c4c(Cl)cnn4c3)c1C)C2 [Example 5, (R)-1-(2-(4-(3-chloro-4-(2-hydroxy-1-(pyridin-2-yl)ethoxy)pyrazolo[1,5-a]pyridin-6-yl)-5-methyl-1H-pyrazol-1-yl)-7-azaspiro[3.5]nonan-7-yl)prop-2-en-1-one] | ≥ 1000 | 250 to 1000 | ≥ 1000 | ≥ 1000 | 250 to 1000 | ≥ 1000 |  |  | 
4 | C=CC(=O)N1CCC2(CC1)CC(n1ncc(-c3cc(O[C@@H](CO)c4ccccn4)c4c(C#N)cnn4c3)c1C)C2 [Example 7, (R)-6-(1-(7-acryloyl-7-azaspiro[3.5]nonan-2-yl)-5-methyl-1H-pyrazol-4-yl)-4-(2-hydroxy-1-(pyridin-2-yl)ethoxy)pyrazolo[1,5-a]pyridine-3-carbonitrile] | 250 to 1000 | 100 to 250 | ≥ 1000 | 250 to 1000 | 100 to 250 | 250 to 1000 | 100 to 250 | 250 to 1000 | 250 to 1000
5 | C=CC(=O)N1CCC2(CC1)CC(n1ncc(-c3cc(O[C@@H](CO)c4ccc(F)cn4)c4c(C#N)cnn4c3)c1C)C2 [Example 10, (R)-6-(1-(7-acryloyl-7-azaspiro[3.5]nonan-2-yl)-5-methyl-1H-pyrazol-4-yl)-4-(1-(5-fluoropyridin-2-yl)-2-hydroxyethoxy)pyrazolo[1,5-a]pyridine-3-carbonitrile] | 250 to 1000 | 250 to 1000 | ≥ 1000 | ≥ 1000 | 250 to 1000 | ≥ 1000 | 250 to 1000 | 250 to 1000 | 
6 | C=CC(=O)N1CCC2(CC1)CC(n1ncc(-c3cc(OC(CO)c4ccnn4C)c4c(C#N)cnn4c3)c1C)C2 (centres unmarked) [Example 11, 6-(1-(7-acryloyl-7-azaspiro[3.5]nonan-2-yl)-5-methyl-1H-pyrazol-4-yl)-4-(2-hydroxy-1-(1-methyl-1H-pyrazol-5-yl)ethoxy)pyrazolo[1,5-a]pyridine-3-carbonitrile] | 250 to 1000 | 100 to 250 | ≥ 1000 | ≥ 1000 | 250 to 1000 | ≥ 1000 | 100 to 250 | 100 to 250 | 250 to 1000
7 | C=CC(=O)N1CCC2(CC1)CC(n1nnc(-c3cc(O[C@@H](CO)c4ccc(F)cn4)c4c(C#N)cnn4c3)c1C)C2 [Example 12, (R)-6-(1-(7-acryloyl-7-azaspiro[3.5]nonan-2-yl)-5-methyl-1H-1,2,3-triazol-4-yl)-4-(1-(5-fluoropyridin-2-yl)-2-hydroxyethoxy)pyrazolo[1,5-a]pyridine-3-carbonitrile] | 250 to 1000 | 100 to 250 | ≥ 1000 | ≥ 1000 | 250 to 1000 | ≥ 1000 | 250 to 1000 | 250 to 1000 | ≥ 1000
8 | C=CC(=O)N1CCC2(CC1)CC(n1ncc(-c3cc(OC(CO)c4cncc5ccccc45)c4c(C#N)cnn4c3)c1C)C2 (centres unmarked) [Example 15, 6-(1-(7-acryloyl-7-azaspiro[3.5]nonan-2-yl)-5-methyl-1H-pyrazol-4-yl)-4-(2-hydroxy-1-(isoquinolin-4-yl)ethoxy)pyrazolo[1,5-a]pyridine-3-carbonitrile] | 0.1 to 100 | 0.1 to 100 | 100 to 250 | 100 to 250 | 0.1 to 100 | 250 to 1000 | 0.1 to 100 | 0.1 to 100 | 0.1 to 100
9 | C=CC(=O)N1CC(OC)(C(=O)N2CCC(n3nnc(-c4cc(O[C@@H](CO)c5ccccn5)c5c(C#N)cnn5c4)c3C)CC2)C1 [Example 21, (R)-6-(1-(1-(1-acryloyl-3-methoxyazetidine-3-carbonyl)piperidin-4-yl)-5-methyl-1H-1,2,3-triazol-4-yl)-4-(2-hydroxy-1-(pyridin-2-yl)ethoxy)pyrazolo[1,5-a]pyridine-3-carbonitrile] | ≥ 1000 | 100 to 250 | ≥ 1000 | ≥ 1000 | ≥ 1000 | ≥ 1000 | 250 to 1000 | 250 to 1000 | ≥ 1000

Source: US20260209223A1, “FGFR3 INHIBITOR COMPOUNDS” (TYRA BIOSCIENCES, INC., priority 2022, published 2026)
